{"source": "patent US20140094413A1", "about": "“HEPATOCYTE GROWTH FACTOR (HGF) MIMICS AS THERAPEUTIC AGENTS” (WASHINGTON STATE UNIVERSITY, priority 2012, published 2014)", "key": {"[1]": {"test_system": "MDCK cells", "experiment": "Inhibition of HGF-dependent scattering in MDCK cells", "type": "cell-based, canine", "conditions": "HGF 20 ng/ml, 48 h", "description": "MDCK cells were grown to 100% confluency on the coverslips in six-well plates and washed twice with PBS. The confluent coverslips were then aseptically transferred to new six well plates containing 900 μl serum free DMEM. Norleual, Hinge peptide, and/or HGF (20 ng/ml) were added to appropriate wells. Control wells received PBS vehicle. Plates were incubated at 37° C. with 5% CO2 for 48 h. Media was removed and cells were fixed with methanol. Cells were stained with Diff-Quik Wright-Giemsa (Dade-Behring, Newark, Del.) and digital images were taken. Coverslips were removed with forceps and more digital images were captured. Pixel quantification of images was achieved using Image J and statistics were performed using Prism 5 and InStat v.3.05 (GraphPad; San Diego, Calif.)."}, "[2]": {"target": "T1, human HGF (Homo sapiens, UniProt P14210)", "T1 construct": "purchased R&D Systems (Minneapolis, Minn.)", "T1 sequence (P14210 32-728)": "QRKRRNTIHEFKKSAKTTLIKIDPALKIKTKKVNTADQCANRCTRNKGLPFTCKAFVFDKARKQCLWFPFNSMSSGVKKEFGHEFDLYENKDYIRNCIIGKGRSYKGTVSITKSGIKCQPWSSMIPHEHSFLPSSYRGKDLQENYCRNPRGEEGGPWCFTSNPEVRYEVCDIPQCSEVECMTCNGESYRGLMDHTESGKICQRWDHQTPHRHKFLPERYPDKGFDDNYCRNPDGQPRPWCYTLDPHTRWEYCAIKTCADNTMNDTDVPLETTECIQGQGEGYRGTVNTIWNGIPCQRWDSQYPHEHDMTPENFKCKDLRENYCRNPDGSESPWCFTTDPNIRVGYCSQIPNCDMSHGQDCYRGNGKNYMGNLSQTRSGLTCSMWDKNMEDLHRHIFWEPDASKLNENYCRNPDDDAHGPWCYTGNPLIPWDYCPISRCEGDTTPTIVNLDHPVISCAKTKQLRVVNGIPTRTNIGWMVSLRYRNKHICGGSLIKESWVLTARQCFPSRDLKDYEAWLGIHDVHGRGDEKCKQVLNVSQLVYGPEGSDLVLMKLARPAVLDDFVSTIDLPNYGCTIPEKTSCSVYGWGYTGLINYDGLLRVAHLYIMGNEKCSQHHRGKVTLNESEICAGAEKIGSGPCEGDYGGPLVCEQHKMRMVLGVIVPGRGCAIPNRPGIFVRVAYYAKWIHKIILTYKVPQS", "experiment": "HGF dimerization", "type": "biochemical", "conditions": "analogs at 10^−10 M, heparin, 30 minute incubation", "description": "HGF dimerization was assessed using PAGE followed by silver staining (Kawas et al., 2011). Human HGF at a concentration of 0.08 ng/μl with or without 6-AH analogs was incubated with heparin at a final concentration of 5 μg/ml. Loading buffer was then added to each sample and the mixture separated by native PAGE using gradient Criterion XT precast gels (4-12% Bis-Tris; Biorad Laboratories, Hercules, Calif.). Next the gel was silver stained for the detection of the HGF monomers and dimers. Bands were quantitated from digital images using a UVP phosphoimager (Upland, Calif.)."}, "[3]": {"target": "T1, human HGF", "experiment": "HGF binding, competition with 3H-Hinge", "conditions": "1.25 ng HGF, 40 min at 37° C.; N=9", "description": "The binding of 6-AH analogs to HGF was assessed by competition using a soluble binding assay. 250 μl of PBS containing human HGF (1.25 ng) were incubated with ^3H-Hinge, the central dimerization domain of HGF, in the presence of varying concentrations of 6-AH analogs between 10^−13 M to 10^−7M (half-log dilutions) for 40 min at 37° C. The incubates were then spun through Bio-Gel P6 spin columns (400 μl packed volume) for 1 min to separate free and bound ^3H-Hinge and the eluent was collected. Five milliliters of scintillation fluid was added to the eluent, which contained the HGF bound ^3H-Hinge, and was then counted using scintillation counter. Total disintegrations per minute of bound ^3H-Hinge were calculated based on machine counting efficiency. The Ki values for the binding of the peptides were determined using the Prism 5. Competition binding curves were performed in triplicate."}, "[4]": {"test_system": "Met", "experiment": "Inhibition of HGF-dependent Met phosphorylation in HEK293 cells", "type": "cell-based, human", "conditions": "10 min with HGF+/− analog", "description": "HEK293 cells were seeded in 6 well tissue culture plates and grown to 95% confluency in DMEM containing 10% FBS. The cells were serum deprived for 24 h prior to the treatment to reduce the basal levels of phospho-Met. Following serum starvation, cocktails comprised of vehicle and HGF with/without 6-AH analogs were prepared and pre-incubated for 30 min at room temperature. The cocktail was then added to the cells for 10 min to stimulate the Met receptor and downstream proteins. Cells were harvested using RIPA lysis buffer (Millipore; Billerica, Mass.) fortified with phosphatase inhibitor cocktails 1 and 2 (Sigma-Aldrich; St. Louis, Mo.). The lysate was clarified by centrifugation at 15,000 nx g for 15 min, protein concentrations were determined using the BCA total protein assay (Pierce), and then appropriate volumes of the lysates were diluted with 2× reducing Laemmli buffer and heated for ten min at 95° C. Samples containing identical amounts of protein were resolved using SDS-PAGE (Criterion, BioRad Laboratories), transferred to nitrocellulose, and blocked in Tris-buffered saline (TBS) containing 5% milk for 1 h at room temperature. The phospho-Met antibody were added to the blocking buffer at a final concentration of 1:1000 and incubated at 4° C. overnight with gentle agitation. The membranes were then washed several times with water and TBS ([…], 0.05% Tween-20), a 1:5000 dilution of horseradish-peroxidase conjugated goat anti-rabbit antiserum was added, and the membranes further incubated for 1 h at room temperature. Proteins were visualized using the Supersignal West Pico Chemiluminescent Substrate system (Pierce, Fenton, Mo.) and molecular weights determined by comparison to protein ladders (BenchMark, Invitrogen, and Kaleidoscope, BioRad). Film images were digitized and analyzed using a UVP phosphoimager."}, "[5]": {"test_system": "MDCK cells", "experiment": "HGF-dependent MDCK cell proliferation (MTT)", "type": "cell-based, canine", "conditions": "analogs at 10^−10M, HGF 10 ng/ml, 4 days", "description": "5000 MDCK cells were seeded into the wells of a 96 well plates in 10% FBS DMEM. To induce cellular quiescence, the cells were serum deprived for 24 h prior to initiating the treatments. Following serum starvation, 10 ng/ml HGF alone and with various concentrations of 6-AH analogs or PBS vehicle were added to the media. The cells were allowed to grow under these conditions for 4 days with a daily addition of 6-AH analogs. On the fourth day, 1 mg/ml of […] (MTT, Sigma-Aldrich) prepared in PBS was added to the cells and incubated for 4 h. Dimethyl sulfoxide diluted in a 0.01M glycine buffer was added to solubilize the cell membranes and the absorbance of reduced MTT in the buffer was quantitated at 590 nm using a plate reader (Biotek Synergy 2, Winooski, Vt.). HGF-dependent proliferation was determined by subtracting the basal proliferation (in the absence of HGF) from total proliferation rates in groups containing HGF."}, "[6]": {"test_system": "rats", "experiment": "Morris water maze with i.c.v. Dihexa and HGF antagonist Hinge", "type": "in vivo, rat"}, "[7]": {"test_system": "scopolamine treated rats", "experiment": "Morris water maze, scopolamine amnesia model", "conditions": "Hinge 20 ng ICV; Dihexa 2 mg/kg orally; scopolamine 70 μg ICV", "procedure": "Male Sprague-Dawley rats (Taconic derived) weighing 390-450 g were maintained with free access to water and food (Harland Tekland F6 rodent diet, Madison, Wis.) except the night prior to surgery when food was removed. Each animal was anesthetized with Ketamine hydrochloride plus Xylazine (100 and 2 mg/kg im. respectively; Phoenix Scientific; St. Joseph, Mo., and Moby; Shawnee, Kans.). […] The guide cannula measured 2.5 cm in overall length and was prepared with a heat bulge placed 2.5 mm from its beveled tip, thus acting as a stop to control the depth of penetration. Once in position, the cannula was secured to the skull with two stainless-steel screws and dental cement. Post-operatively the animals were housed individually in an American Accreditation for Laboratory Animal Care-approved vivarium maintained at 22±1° C. on a 12-h alternating light/dark cycle initiated at 06:00 h. All animals were hand gentled for 5 min per day during the 5-6 days of post-surgical recovery. Histological verification of cannula placement was accomplished by the injection of 5 μl fast-green dye via the guide cannula following the completion of behavioral testing.\nA black circular platform (diameter: 12 cm; height: 24 cm) was placed 30 cm from the wall and submerged 2 cm below the water surface. The maze was operationally sectioned into four equal quadrants designated NW, NE, SW, and SE. For each rat the location of the platform was randomly assigned to one of the quadrants and remained fixed throughout the duration of training. Entry points were at the quadrant corners (i.e. N, S, E, and W) and were pseudo-randomly assigned such that each trial began at a different entry point than the preceding trial. Three of the four testing room walls were covered with extra-maze spatial cues consisting of different shapes (circles, squares, triangles) and colors. The swimming path of the animals was recorded using a computerized video tracking system (Chromotrack; San Diego Instruments, CA). […] Swim speed was determined from these values.\nEach member of the treatment groups in the scopolamine studies received an icy injection of scopolamine hydrobromide (70 nmol in 2 μl aCSF over a duration of 20 s) 30 min prior to testing followed by Dihexa 10 min prior to testing. Control groups received scopolamine or aCSF 20 min prior to testing followed by aCSF 10 min prior testing. […] The rats in the aged rat study on received Dihexa of aCSF (control group). Briefly, acquisition trials were conducted on 8 consecutive days with 5 trials/day. On the first day of training the animal was placed on the platform for 30 s prior to the first trial. Trials commenced with the placement of the rat facing the wall of the maze at one of the assigned entry points. […] Once the animal located the platform it was permitted a 30 s rest period on the platform. […] The next trial commenced immediately following the rest period.\nFollowing day 8 of acquisition training, one additional trial was conducted during which the platform was removed (probe trial). […] Total time spent within the target quadrant where the platform had been located during acquisition and the number of crossings of that quadrant was recorded."}, "[8]": {"test_system": "hippocampal neurons", "experiment": "Spinogenesis in mRFP-β-actin transfected dissociated hippocampal neurons", "type": "cell-based, rat", "description": "(§1) Hippocampal neurons (2×10^5 cells per square cm) were cultured from P1 Sprague Dawley rats on plates coated with poly-L-lysine from Sigma (St. Louis, Mo.; molecular weight 300,000). Hippocampal neurons were maintained in Neurobasal A media from Invitrogen (Carlsbad, Calif.) supplemented with B27 from Invitrogen, 0.5 mM L-glutamine, and […] cytosine-D-arabinofuranoside from Sigma added at 2 days in vitro. Hippocampal neurons were then cultured a further 3-7 days, at which time they were either transfected or treated with various pharmacological reagents as described in (Wayman, Davare et al. 2008).\n(§2) Neurons were transfected with mRFP-β-actin on day in vitro 6 (DIV6) using LipofectAMINE™ 2000 (Invitrogen) according to the manufacturer's protocol. This protocol yielded the desired 3-5% transfection efficiency thus enabling the visualization of individual neurons. Higher efficiencies obscured the dendritic arbor of individual neurons. Expression of fluorescently tagged actin allowed clear visualization of dendritic spines, as dendritic spines are enriched in actin. […] On DIV 12 the neurons were fixed (4% paraformaldehyde, 3% sucrose, 60 mM PIPES, 25 mM HEPES, 5 mM EGTA, 1 mM MgCl2, pH 7.4) for 20 min at room temperature and mounted. Slides were dried for at least 20 hours at 4° C. and fluorescent images were obtained with Slidebook 4.2 Digital Microscopy Software driving an Olympus IX81 inverted confocal microscope with a 60× oil immersion lens, NA 1.4 and resolution 0.280 μm Dendritic spine density was measured on primary and secondary dendrites at a distance of at least 150 μm from the soma. Five 50 μm long segments of dendrite from at least 10 neurons per data point were analyzed for each data point reported. Each experiment was repeated at least three times using independent culture preparations. Dendrite length was determined using the National Institutes of Health's Image J 1.41o program (NIH, Bethesda, Md.) and the neurite tracing program Neuron J (Meijering, Jacob et al. 2004) Spines were manually counted.\nas §1, with “centimeter)” for “cm)”, “P1-2” for “P1”, “the text or figure legends.” for “(Wayman, Davare et al. 2008).”\nas §2, with “DIV12” for “DIV 12”, “Dendrite length was determined using the National Institutes of Health's Image J 1.41o program (NIH, Bethesda, Md.) and the neurite tracing program Neuron J (Meijering, Jacob et al. 2004) Spines were manually counted.” left out"}, "[9]": {"test_system": "hippocampal neurons", "experiment": "Whole-cell recordings of mEPSCs in dissociated hippocampal neurons", "type": "cell-based, rat", "parameters": "unit not given beside the values", "conditions": "10^−12 M (each), 5 days"}, "[10]": {"conditions": "aCSF followed by Hinge, no scopolamine"}}, "note": "“Also recorded” adds a separate entry of the source. Structures can show the parent of a compound that is named as a salt. Where a SMILES comes first, the peptide text is derived from it. [ ]: non-standard residue; d: D form. dNle = CCCC[C@@H](N)C(=O)O; Ahx = NCCCCCC(=O)O"}
{"compound": "CCCC[C@@H](N)C(=O)N[C@@H](CCSC)C(=O)N[C@H](C(=O)NCCCCCC(N)=O)[C@@H](C)CC", "note": "[D-Nle-Met-Ile-NH—(CH2)5—CONH2] (H-[dNle]MI[Ahx]-NH2)", "values": [{"measurement": "Inhibition of HGF-dependent MDCK cell scattering", "setting": "[1]", "value": "not different"}, {"measurement": "Inhibition of HGF dimerization", "setting": "[2]", "value": "unable to block dimerization at the concentration tested"}, {"measurement": "Ki", "setting": "[3]", "value": 138, "unit": "nM"}, {"measurement": "Inhibition of HGF-dependent Met phosphorylation", "setting": "[4]", "value": "no ability to effect on Met activation"}, {"measurement": "Inhibition of HGF-dependent Met phosphorylation", "setting": "[4]; listed as Met", "value": "not different than the HGF group"}]}
{"compound": "CCCC[C@@H](N)C(=O)N[C@@H](Cc1c[nH]c2ccccc12)C(=O)N[C@H](C(=O)NCCCCCC(N)=O)[C@@H](C)CC", "note": "[D-Nle-Trp-Ile-NH—(CH2)5—CONH2] (H-[dNle]WI[Ahx]-NH2)", "values": [{"measurement": "Inhibition of HGF-dependent MDCK cell scattering", "setting": "[1]", "value": "different from the HGF alone group but not different from the control group"}, {"measurement": "Inhibition of HGF-dependent MDCK cell proliferation", "setting": "[5]", "value": "showed inhibitory activity, albeit less than that observed with the most potent analogs"}, {"measurement": "Inhibition of HGF dimerization", "setting": "[2]", "value": "intermediate inhibition of dimerization"}, {"measurement": "Inhibition of HGF dimerization", "setting": "[2]; listed as Trp", "value": "statistically different than the HGF treated group"}, {"measurement": "Ki", "setting": "[3]", "value": 3.37, "unit": "nM"}, {"measurement": "Inhibition of HGF-dependent Met phosphorylation", "setting": "[4]", "value": "intermediate inhibitory activity"}]}
{"compound": "CN1[C@@H]2C[C@@H](OC(=O)[C@H](CO)c3ccccc3)C[C@H]1[C@@H]1O[C@@H]12", "note": "[scopolamine, scopolamine hydrobromide]", "values": [{"measurement": "Mean latency to find the pedestal, day one", "setting": "[6]; scopolamine treated rats", "value": 114.7, "unit": "s"}, {"measurement": "Mean latency to find the pedestal, final day (day 8)", "setting": "[6]; scopolamine treated rats", "value": 84.8, "unit": "s"}, {"measurement": "Mean latency to find the pedestal, fourth day", "setting": "[6]; scopolamine treated rats", "value": 102.4, "unit": "s"}]}
{"compound": "DYIRNC (Synthetic hinge peptide) [novel HGF antagonist; peptide representing the dimerization domain (hinge region) of HGF; KDYIRN in b79]", "values": [{"measurement": "Blockade of Dihexa's reversal of scopolamine cognitive dysfunction", "setting": "[7]", "value": "blocked"}, {"measurement": "Inhibition of Dihexa-induced spinogenesis", "setting": "[8]; Hinge 10^−12 M, Dihexa 10^−12 M", "value": "did effectively inhibit spine formation; also recorded: inhibits Dihexa-induced spinogenesis; also recorded: inhibits Dihexa induced spinogenesis"}, {"measurement": "Inhibition of HGF-induced spinogenesis", "setting": "[8]; Hinge 10^−12 M, HGF 10 ng/ml", "value": "did effectively inhibit spine formation; also recorded: inhibits HGF-induced spinogenesis; also recorded: inhibits HGF induced spinogenesis"}, {"measurement": "Inhibition of Nle1-AngIV-induced spinogenesis", "setting": "[8]; Hinge 10^−12 M, Nle1-AngIV 10^−12 M", "value": "did effectively inhibit spine formation; also recorded: inhibits Nle1-AngIV-induced spinogenesis; also recorded: inhibits Nle^1-AngIV induced spinogenesis"}, {"measurement": "Effect on basal spinogenesis", "setting": "[8]; Hinge alone, wide range of doses", "value": "no effect on spinogenesis over a wide range of doses; also recorded: does not affect spinogenesis; also recorded: had no effect on basal spine levels"}, {"measurement": "mEPSC mean frequency", "setting": "[9]", "value": "4.51±0.47"}, {"measurement": "Effect on learning in the water maze", "setting": "[6]; Hinge alone", "value": "no effect on learning"}, {"measurement": "Mean latency to find the pedestal, day one", "setting": "[6]; [10]", "value": 111.1, "unit": "s"}, {"measurement": "Mean latency to find the pedestal, final day (day 8)", "setting": "[6]; [10]", "value": 46.1, "unit": "s"}, {"measurement": "Mean latency to find the pedestal, fourth day", "setting": "[6]; [10]", "value": 78.3, "unit": "s"}]}
